In PMC4561207 (Child's nervous system : ChNS : official journal of the …, 2015):
Entries after “also recorded” stand apart in the source; their conditions may differ.

Experiment: Toxicities attributed to Cediranib
Type: in vivo, human

COc1cc2c(Oc3ccc4[nH]c(C)cc4c3F)ncnc2cc1OCCCN1CCCC1 [cediranib, Cediranib]
Eye disorders - Other, specify, events (patients) (grade 3 TOX): 1(1)
Fatigue, events (patients) (grade 3 TOX): 2(2)
Headache, events (patients) (grade 3 TOX): 2(2)
Hydrocephalus, events (patients) (grade 3 TOX): 1(1)
Hypertension, events (patients) (grade 3 TOX): 10(10)
Hypertriglyceridemia, events (patients) (grade 3 TOX): 1(1)
Hypokalemia, events (patients) (grade 3 TOX): 2(1)
Hyponatremia, events (patients) (grade 3 TOX): 3(3)
Lipase increased, events (patients) (grade 3 TOX): 1(1)
Lymphocyte count decreased, events (patients) (grade 3 TOX): 5(3)
Nausea, events (patients) (grade 3 TOX): 1(1)
Neutrophil count decreased, events (patients) (grade 3 TOX): 2(2)
Palmar-plantar erythrodysesthesia syndrome, events (patients) (grade 3 TOX): 3(3)
Proteinuria, events (patients) (grade 3 TOX): 3(3)
Reversible posterior leukoencephalopathy syndrome, events (patients) (grade 3 TOX): 1(1)
Vomiting, events (patients) (grade 3 TOX): 1(1)
Weight loss, events (patients) (grade 3 TOX): 1(1)
White blood cell decreased, events (patients) (grade 3 TOX): 1(1)
Alanine aminotransferase increased, events (patients) (grade 4 TOX): 1(1)
Aspartate aminotransferase increased, events (patients) (grade 4 TOX): 1(1)
Hypothyroidism, events (patients) (grade 4 TOX): 1(1)
Lymphocyte count decreased, events (patients) (grade 4 TOX): 1(1)
Nervous system disorders - Other, specify, events (patients) (grade 4 TOX): 1(1)
Papilledema, events (patients) (grade 4 TOX): 1(1)
fatigue, number of patients (human, in vivo): 16
left ventricular dysfunction (human, in vivo): No left ventricular dysfunction was identified in any of the patients; also recorded: No dose-limiting decreases in left ventricular function were observed
palmar-plantar erythrodysesthesia syndrome, number of patients (human, in vivo): 7
hypertension, percentage of patients (of 48 eligible patients): 77%
hypothyroidism, number of patients (of 48 eligible patients): 15
hypothyroidism, percentage of patients (of 48 eligible patients): 31%
proteinuria, number of patients (of 48 eligible patients): 20
proteinuria, percentage of patients (of 48 eligible patients): 42%
hypertension, number of patients (of 48 eligible patients, all dose levels): 37
diarrhea grade 3, number of patients (of thirty-two patients with diarrhea): 2
effect on bone growth: bone-related AEs (short duration of drug exposure in the majority of patients): no bone-related AEs were identified
Abdominal pain, events (patients) (total TOX): 10(10)
Acidosis, events (patients) (total TOX): 1(1)
Alanine aminotransferase increased, events (patients) (total TOX): 65(28)
Alkaline phosphatase increased, events (patients) (total TOX): 2(2)
Anal mucositis, events (patients) (total TOX): 1(1)
Anal pain, events (patients) (total TOX): 1(1)
Anemia, events (patients) (total TOX): 3(3)
Anorexia, events (patients) (total TOX): 13(10)
Arthralgia, events (patients) (total TOX): 1(1)
Aspartate aminotransferase increased, events (patients) (total TOX): 43(21)
Back pain, events (patients) (total TOX): 2(2)
Blood bilirubin increased, events (patients) (total TOX): 13(7)
Blurred vision, events (patients) (total TOX): 1(1)
Bone pain, events (patients) (total TOX): 2(1)
Capillary leak syndrome, events (patients) (total TOX): 1(1)
Cardiac troponin I increased, events (patients) (total TOX): 1(1)
Chest wall pain, events (patients) (total TOX): 1(1)
Cholesterol high, events (patients) (total TOX): 1(1)
Chronic kidney disease, events (patients) (total TOX): 1(1)
Confusion, events (patients) (total TOX): 1(1)
Constipation, events (patients) (total TOX): 6(2)
Cough, events (patients) (total TOX): 1(1)
Creatinine increased, events (patients) (total TOX): 1(1)
Dehydration, events (patients) (total TOX): 4(4)
Depressed level of consciousness, events (patients) (total TOX): 1(1)
Depression, events (patients) (total TOX): 1(1)
Diarrhea, events (patients) (total TOX): 61(32)
Dizziness, events (patients) (total TOX): 5(3)
Dry mouth, events (patients) (total TOX): 1(1)
Dry skin, events (patients) (total TOX): 1(1)
Dyspepsia, events (patients) (total TOX): 3(3)
Dysphasia, events (patients) (total TOX): 1(1)
Edema face, events (patients) (total TOX): 1(1)
Edema limbs, events (patients) (total TOX): 1(1)
Endocrine disorders - Other, specify, events (patients) (total TOX): 1(1)
Enterocolitis, events (patients) (total TOX): 1(1)
Epistaxis, events (patients) (total TOX): 5(4)
Eye disorders - Other, specify, events (patients) (total TOX): 1(1)
Fatigue, events (patients) (total TOX): 18(16)
Fecal incontinence, events (patients) (total TOX): 1(1)
Fever, events (patients) (total TOX): 1(1)
Flushing, events (patients) (total TOX): 3(1)
GGT increased, events (patients) (total TOX): 1(1)
Gastritis, events (patients) (total TOX): 1(1)
Gastrointestinal disorders - Other, specify, events (patients) (total TOX): 2(2)
Headache, events (patients) (total TOX): 10(7)
Hematuria, events (patients) (total TOX): 5(3)
Hemoglobin increased, events (patients) (total TOX): 6(2)
Hoarseness, events (patients) (total TOX): 1(1)
Hydrocephalus, events (patients) (total TOX): 1(1)
Hypercalcemia, events (patients) (total TOX): 3(2)
Hyperglycemia, events (patients) (total TOX): 9(8)
Hyperkalemia, events (patients) (total TOX): 2(2)
Hypermagnesemia, events (patients) (total TOX): 7(5)
Hypernatremia, events (patients) (total TOX): 5(4)
Hypertension, events (patients) (total TOX): 57(37)
Hyperthyroidism, events (patients) (total TOX): 2(2)
Hypertriglyceridemia, events (patients) (total TOX): 1(1)
Hypoalbuminemia, events (patients) (total TOX): 26(13)
Hypocalcemia, events (patients) (total TOX): 17(8)
Hypoglycemia, events (patients) (total TOX): 3(3)
Hypokalemia, events (patients) (total TOX): 16(12)
Hypomagnesemia, events (patients) (total TOX): 7(5)
Hyponatremia, events (patients) (total TOX): 12(6)
Hypophosphatemia, events (patients) (total TOX): 14(8)
Hypothyroidism, events (patients) (total TOX): 21(15)
Hypoxia, events (patients) (total TOX): 1(1)
INR increased, events (patients) (total TOX): 1(1)
Intracranial hemorrhage, events (patients) (total TOX): 4(4)
Investigations - Other, specify, events (patients) (total TOX): 2(2)
Joint effusion, events (patients) (total TOX): 1(1)
Leukoencephalopathy, events (patients) (total TOX): 1(1)
Lipase increased, events (patients) (total TOX): 2(1)
Lymphocyte count decreased, events (patients) (total TOX): 24(10)
Malaise, events (patients) (total TOX): 2(1)
Mucositis oral, events (patients) (total TOX): 3(3)
Myalgia, events (patients) (total TOX): 2(2)
Nausea, events (patients) (total TOX): 19(10)
Nervous system disorders - Other, specify, events (patients) (total TOX): 1(1)
Neutrophil count decreased, events (patients) (total TOX): 20(10)
Non-cardiac chest pain, events (patients) (total TOX): 1(1)
Oral pain, events (patients) (total TOX): 2(2)
Pain in extremity, events (patients) (total TOX): 4(4)
Pain, events (patients) (total TOX): 1(1)
Palmar-plantar erythrodysesthesia syndrome, events (patients) (total TOX): 17(7)
Papilledema, events (patients) (total TOX): 1(1)
Pericardial effusion, events (patients) (total TOX): 1(1)
Peripheral motor neuropathy, events (patients) (total TOX): 1(1)
Platelet count decreased, events (patients) (total TOX): 25(18)
Pleural effusion, events (patients) (total TOX): 1(1)
Proteinuria, events (patients) (total TOX): 36(20)
Rash acneiform, events (patients) (total TOX): 2(2)
Rash maculo-papular, events (patients) (total TOX): 5(5)
Rectal pain, events (patients) (total TOX): 1(1)
Renal and urinary disorders - Other, specify, events (patients) (total TOX): 1(1)
Respiratory, thoracic and mediastinal disorders - Other, specify, events (patients) (total TOX): 1(1)
Reversible posterior leukoencephalopathy syndrome, events (patients) (total TOX): 2(1)
Seizure, events (patients) (total TOX): 1(1)
Serum amylase increased, events (patients) (total TOX): 1(1)
Skin and subcutaneous tissue disorders - Other, specify, events (patients) (total TOX): 1(1)
Skin ulceration, events (patients) (total TOX): 1(1)
Stomach pain, events (patients) (total TOX): 2(2)
Urinary frequency, events (patients) (total TOX): 1(1)
Urinary retention, events (patients) (total TOX): 1(1)
Vascular disorders - Other, specify, events (patients) (total TOX): 2(2)
Voice alteration, events (patients) (total TOX): 2(2)
Vomiting, events (patients) (total TOX): 27(13)
Weight loss, events (patients) (total TOX): 3(3)
White blood cell decreased, events (patients) (total TOX): 18(11)
